The nature of series [1]: Photophysical measurements of photosensitizers (λmax, ε, φ f). The series is classed as physicochemical. On the set-up: λmax: unit not given here. As to conditions: for ε: at λmax; for λmax: band I absorption maximum.
Series [2] relates to Chinese hamster lung fibroblasts (V-79). The series is described as follows: DC(50)(light): colony-formation phototoxicity after laser irradiation. Conditions: V-79 cells; sensitizer incubation 16-24 hours; 12.5 mW/cm^2, total light dose 1.25 J/cm^2; concentration for lethal damage to 50% of cells. The class given is cell-based. As to the method:
(§1) For the Biological Evaluation, Chinese hamster lung fibroblasts (V-79) obtained from the American Tissue Culture Collection were grown in D-MEM supplemented with 10% fetal calf serum at 37° C., 5% CO2, and 95% humidity. These cells were used to evaluate the sensitizers for dark and light toxicity, and cellular uptake. Medium was replaced with 5% fetal calf serum supplemented medium during sensitizer incubations.
In the first phase, the combination of intracellular and extracellular concentration of photosensitizer required for lethal damage to 50% of the cells in culture (DC(50)) on light exposure was determined by plating cells at a density of 100 cells/cm^2 and incubating for 1-3 hours to allow attachment of the cells. Cells were incubated with various concentrations of sensitizer ([C]=0.01-1.0 μM) delivered in non-toxic concentrations of DMSO/5% dextrose solution or in some cases in egg yolk phosphatidase (EYP) for 16-24 hours. The cells were then irradiated with laser light using a tunable Lexel argon pumped dye laser at the band I absorption of the photosensitizer. Total power density was adjusted to 12.5 mW/cm^2 and a total light dose of 1.25 J/cm^2 was applied. After treatment, cells were washed with HBSS, refed with 10% FBS supplemented DMEM with phenol red and incubated for 3-5 days to allow colony formation. Cells were fixed in methanol, stained with Giemsa, and colonies were counted. Plating efficiency was determined using a control colony and the mean percent survival fraction plotted against the sensitizer concentration and the DC50 established (Table 5).

In the next series the test system is V-79 cells. Description: Cellular uptake of photosensitizer. The series is classed as in vitro ADME, Chinese hamster. Conditions: 10 μM photosensitizer in EYP. As to the method: as §1
Several photosensitizers were screened by a standard cellular uptake protocol. A 10 μM stock solution of photosensitizer in EYP was prepared by dilution of the photosensitizer stock (1 mM) using 5% dextrose solution. […] Following incubation the cells were washed with PBS (1 mL) three times, then washed with HBSS (1 mL) and detached using 100 μL of trypsin. Individual wells containing cells were lysed by three freeze thaws.
Spiking experiments were performed to confirm that the sensitizer could be adequately recovered using standard procedures. The sensitizer was then extracted from the cell debris with DMSO, centrifuged and the supernatant examined for fluorescence. Sensitizer concentration was determined by comparison to a standard curve. Results are expressed in ug/ug protein. Untreated monolayers are used to determine cell count. Treated cells of each time point were used to determine the protein concentration using the BCA assay. Results shown are the mean of the three experiments for each timepoint.

The next series has as its system BA mammary carcinoma. The series is described as follows: In vivo assay of photosensitizers on tumors (PDT tumor cure). Further details: species or system C3H/HeJ mice. As to conditions: treatment 24 post injection, light dose 200 J/cm^2, n = 10. As to the method: Female C3H/HeJ mice (8-9 weeks old) were subjected to trochar implantation of BA mammary carcinoma on the hind leg of the animals. Animals having tumors ca 5 mm in diameter were entered into the in vivo screen. For each new photosensitizer, a group of at least three mice were used to ascertain a drug dose that caused a response as described in table 3 when treated with the appropriate wavelength of light. Generally in this series, animals were injected with 1 μ mole of sensitizer/Kg of body weight, formulated in egg yolk phosphatidate (EYP), via the tail vein. At a defined time period later the animals were irradiated with light from a laser source tuned to the wavelength of activation of the sensitizer. The power density of the laser was set at 75 mW/cm^2 with a total light dose of 200 J/cm^2.

The IC50 is the concentration needed to halve the response being measured. For `CCC1=C(CC)c2cc3[nH]c(c(CC)c3CC)c3cc(S(=O)(=O)NCCCO)cc4c3nc(cc3[nH]c(cc1n2)c(CC)c3CC)C4(CC)CC` [Compound 2, OEBCSO2NH(CH2)3OH], in series [1], the φ f came to 0.230, the ε was 34,000 M^−1 cm^−1 and the λmax came to 665. Also, in series [2], the IC50 lay in the range of 0.5 to 1 µM. Further, the “Cellular uptake (24 hrs)” value in the series on V-79 cells was 0.129 ρmole/μg protein. Further, the “% Cure (30 days)” value in the series with BA mammary carcinoma (drug dose 2.5 μm/Kg via tail vein in EYP) was found to be 80%.
Regarding `CCC1=C(CC)C2=NC1=Cc1c(CC)c(CC)c3[n]1[In]([Cl])[n]1c(c(CC)c(CC)c1=c1cccc4c1=NC(=C3)C4(CC)CC)=C2` [Compound 9, In Octaethylbenzochlorin], in series [1], the φ f came out at 0.028, the ε is 53,000 M^−1 cm^−1 and the λmax turned out to be 691. Besides, the IC50 in series [2] was 0.1 µM. In addition, in the series with V-79 cells, the “Cellular uptake (24 hrs)” value is recorded as 0.336 ρmole/μg protein. For the same compound, the “% Cure (30 days)” value in the series with BA mammary carcinoma (drug dose 0.1 μm/Kg via tail vein in EYP) worked out at 70%.
In the case of tin octaethylbenzochlorin [Compound 6], in series [1], the φ f was 0.044, the ε was 54,000 M^−1 cm^−1 and the λmax stood at 691. For the same compound, in series [2], the IC50 lay in the range of 0.08 to 0.16 µM. Moreover, the “Cellular uptake (24 hrs)” value with V-79 cells is 0.501 ρmole/μg protein. Also, the “% Cure (30 days)” value in the series on BA mammary carcinoma (drug dose 0.75 μm/Kg via tail vein in EYP) came to 80%.

For the origin of these results see patent US6444194B1, “Indium photosensitizers for PDT” (Miravant Pharmaceuticals, Inc., priority 1997, dated 2002).
